Experimental findings from patent US9233983B2, “Substituted hetero-bicyclic compounds, compositions and medicinal applications thereof” (ADVINUS THERAPEUTICS LIMITED, priority 2012, dated 2016) are described below.

Some results are limits rather than exact numbers.

The target in this experiment is human Bruton's Tyrosine Kinase (Btk) (Homo sapiens (Human), UniProt Q06187). As to the kind of experiment: Recombinant Human Bruton's Tyrosine Kinase (Btk) Inhibition Assay (HTRF KinEASE-TK). It counts as biochemical. The following applies: 20 ng/ml rhBtk, 77 μM ATP (KM), 1 μM TK-Biotin substrate, 90 min; read-out: hBTK IC50.
Sequence of human Bruton's Tyrosine Kinase (Btk) (Q06187 whole entry): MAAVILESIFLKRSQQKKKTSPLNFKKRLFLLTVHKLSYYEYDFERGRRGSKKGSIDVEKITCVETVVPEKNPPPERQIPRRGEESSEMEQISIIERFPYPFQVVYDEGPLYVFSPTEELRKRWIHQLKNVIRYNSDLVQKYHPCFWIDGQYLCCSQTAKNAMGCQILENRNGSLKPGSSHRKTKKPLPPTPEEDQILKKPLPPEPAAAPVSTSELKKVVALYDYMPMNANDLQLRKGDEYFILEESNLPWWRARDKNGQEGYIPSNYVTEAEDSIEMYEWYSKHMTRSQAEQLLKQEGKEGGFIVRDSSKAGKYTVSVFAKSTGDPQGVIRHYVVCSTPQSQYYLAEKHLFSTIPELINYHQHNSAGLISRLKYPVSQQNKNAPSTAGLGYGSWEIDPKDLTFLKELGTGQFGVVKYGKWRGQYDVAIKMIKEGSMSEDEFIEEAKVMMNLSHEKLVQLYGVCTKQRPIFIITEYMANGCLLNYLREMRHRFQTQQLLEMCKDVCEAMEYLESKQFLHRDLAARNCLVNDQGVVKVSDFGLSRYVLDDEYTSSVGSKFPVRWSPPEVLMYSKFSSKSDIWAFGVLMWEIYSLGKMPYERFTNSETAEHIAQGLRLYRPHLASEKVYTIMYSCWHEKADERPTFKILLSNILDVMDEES
Usually IC50 stands for the concentration needed to halve the response being measured. As to `CN1CCN(Cc2ccc(-c3cc4c(-c5cccc(N6CCOc7cc(C8CC8)cnc7C6=O)c5CO)ccnc4[nH]3)nc2)CC1` [Example I-3, 8-cyclopropyl-4-[2-(hydroxymethyl)-3-[2-[5-[(4-methylpiperazin-1-yl)methyl]-2-pyridyl]-1H-pyrrolo[2,3-b]pyridin-4-yl]phenyl]-2,3-dihydropyrido[2,3-f][1,4]oxazepin-5-one], the IC50 turned out to be 0.035 µM.
In the case of `Cc1c(-c2ncnc3[nH]c(-c4ccc(C5CCN(CCO)CC5)cc4)cc23)cccc1-n1ccc2cc(C3CC3)ccc2c1=O` [Example H-1, 6-cyclopropyl-2-[3-[6-[4-[1-(2-hydroxyethyl)-4-piperidyl]phenyl]-7H-pyrrolo[2,3-d]pyrimidin-4-yl]-2-methyl-phenyl]isoquinolin-1-one], the IC50 came to 0.013 µM.
Turning to `Cc1c(-c2ncnc3[nH]c(-c4ccc(CN5CCNC(=O)C5)cc4)cc23)cccc1N1CCc2cc(C3CC3)ccc2C1=O` [Example B-11, 6-cyclopropyl-2-[2-methyl-3-[6-[4-[(3-oxopiperazin-1-yl)methyl]phenyl]-7H-pyrrolo[2,3-d]pyrimidin-4-yl]phenyl]-3,4-dihydroisoquinolin-1-one], the IC50 amounted to 0.254 µM.
Turning to `Cc1c(-c2ncnc3[nH]c(-c4ccc(C(=O)N5CCN(C)CC5)cc4)cc23)cccc1N1CCc2cc(C3CC3)ccc2C1=O` [Example K-18, 6-cyclopropyl-2-[2-methyl-3-[6-[4-(4-methylpiperazine-1-carbonyl)phenyl]-7H-pyrrolo[2,3-d]pyrimidin-4-yl]phenyl]-3,4-dihydroisoquinolin-1-one], the IC50 came out at 0.208 µM.
On to `Cc1c(-c2ncnc3[nH]c(-c4cnn(C5CCN(C)CC5)c4)cc23)cccc1N1CCOc2cc(C3CC3)ccc2C1=O` [Example D-2, 8-cyclopropyl-4-[2-methyl-3-[6-[1-(1-methyl-4-piperidyl)pyrazol-4-yl]-7H-pyrrolo[2,3-d]pyrimidin-4-yl]phenyl]-2,3-dihydro-1,4-benzoxazepin-5-one], for which the IC50 came to 0.013 µM.
On to `Cc1c(-c2ncnc3[nH]c(-c4ccc(C(=O)N5CC(O)C5)cc4)cc23)cccc1N1CCc2cc(C3CC3)ccc2C1=O` [Example K-17, 6-cyclopropyl-2-[3-[6-[4-(3-hydroxyazetidine-1-carbonyl)phenyl]-7H-pyrrolo[2,3-d]pyrimidin-4-yl]-2-methyl-phenyl]-3,4-dihydroisoquinolin-1-one], for which the 50% inhibitory concentration (IC50) is 0.041 µM.
`Cc1c(-c2ncnc3[nH]c(-c4ccc(C(=O)N5CCOCC5)cc4)cc23)cccc1N1CCc2cc(C3CC3)ccc2C1=O` [Example K-15, 6-cyclopropyl-2-[2-methyl-3-[6-[4-(morpholine-4-carbonyl)phenyl]-7H-pyrrolo[2,3-d]pyrimidin-4-yl]phenyl]-3,4-dihydroisoquinolin-1-one]: the half-inhibitory concentration (IC50) was determined as 0.13 µM.
Turning to `Cc1c(-c2ncnc3[nH]c(-c4ccc(C(=O)N5CC(O)C5)cc4)cc23)cccc1N1CCOc2cc(C3CC3)ccc2C1=O` [Example K-8, 8-cyclopropyl-4-[3-[6-[4-(3-hydroxyazetidine-1-carbonyl)phenyl]-7H-pyrrolo[2,3-d]pyrimidin-4-yl]-2-methyl-phenyl]-2,3-dihydro-1,4-benzoxazepin-5-one], the concentration for half-maximal inhibition (IC50) stood at 0.36 µM.
Regarding `Cc1c(-c2ncnc3[nH]c(C4=CCCNC4)cc23)cccc1N1CCOc2cc(C3CC3)ccc2C1=O` [Example P-4, 8-cyclopropyl-4-[2-methyl-3-[6-(1,2,3,6-tetrahydropyridin-5-yl)-7H-pyrrolo[2,3-d]pyrimidin-4-yl]phenyl]-2,3-dihydro-1,4-benzoxazepin-5-one], the 50% inhibitory concentration (IC50) was over 1 µM.
Consider `O=C1c2c(F)cc(C3CC3)cc2OCCN1c1cccc(-c2ccnc3[nH]c(-c4ccc(OCCN5CCC5)cn4)cc23)c1CO` [Example Q-2, 4-[3-[2-[5-[2-(azetidin-1-yl)ethoxy]-2-pyridyl]-1H-pyrrolo[2,3-b]pyridin-4-yl]-2-(hydroxymethyl)phenyl]-8-cyclopropyl-6-fluoro-2,3-dihydro-1,4-benzoxazepin-5-one], for which the half-inhibitory concentration (IC50) stood at 0.0031 µM.
In the case of `Cc1c(-c2ncnc3[nH]c(-c4ccc(C(=O)N5CCN(C)CC5)cc4)cc23)cccc1N1CCc2cc(C3CC3)ccc2C1=O` [Example K-21, 6-cyclopropyl-2-[2-methyl-3-[6-[4-(4-methylpiperazine-1-carbonyl)phenyl]-7H-pyrrolo[2,3-d]pyrimidin-4-yl]phenyl]-3,4-dihydroisoquinolin-1-one], the IC50 is over 1 µM.
For `Cc1c(-c2ncnc3[nH]c(-c4ccc(C(=O)NCC(F)(F)F)cc4)cc23)cccc1N1CCOc2cc(C3CC3)ccc2C1=O` [Example K-7, 4-[4-[3-(8-cyclopropyl-5-oxo-2,3-dihydro-1,4-benzoxazepin-4-yl)-2-methyl-phenyl]-7H-pyrrolo[2,3-d]pyrimidin-6-yl]-N-(2,2,2-trifluoroethyl)benzamide], the IC50 was over 1 µM.
Turning to `Cc1c(-c2ncnc3[nH]c(-c4ccc(CN5CCOCC5)cc4)cc23)cccc1N1CCOc2cc(C3CC3)ccc2C1=O` [Example A-5, 8-cyclopropyl-4-[2-methyl-3-[6-[4-(morpholinomethyl)phenyl]-7H-pyrrolo[2,3-d]pyrimidin-4-yl]phenyl]-2,3-dihydro-1,4-benzoxazepin-5-one], the half-maximal inhibitory concentration (IC50) stood at 0.092 µM.
Take `CN1CCN(Cc2ccc(-c3cc4c(-c5cccc(-n6ccc7cc(C8CC8)ccc7c6=O)c5CO)ncnc4[nH]3)cc2)CC1` [Example B-8, 6-cyclopropyl-2-[2-(hydroxymethyl)-3-[6-[4-[(4-methylpiperazin-1-yl)methyl]phenyl]-7H-pyrrolo[2,3-d]pyrimidin-4-yl]phenyl]isoquinolin-1-one]: the IC50 came to 0.007 µM.
For `O=C1c2c(F)cc(C3CC3)cc2OCCN1c1cccc(-c2ccnc3[nH]c(C4=CCN(C5COC5)CC4)cc23)c1CO` [Example P-12, 8-cyclopropyl-6-fluoro-4-[2-(hydroxymethyl)-3-[2-[1-(oxetan-3-yl)-3,6-dihydro-2H-pyridin-4-yl]-1H-pyrrolo[2,3-b]pyridin-4-yl]phenyl]-2,3-dihydro-1,4-benzoxazepin-5-one] the value was 0.022 µM; for `CS(=O)(=O)N1CC=C(c2cc3c(-c4cccc(N5CCOc6cc(C7CC7)cc(F)c6C5=O)c4CO)ccnc3[nH]2)CC1` [Example P-11, 8-cyclopropyl-6-fluoro-4-[2-(hydroxymethyl)-3-[2-(1-methylsulfonyl-3,6-dihydro-2H-pyridin-4-yl)-1H-pyrrolo[2,3-b]pyridin-4-yl]phenyl]-2,3-dihydro-1,4-benzoxazepin-5-one], 0.01 µM; for `CN1CCN(Cc2ccc(-c3cc4c(-c5cccc(N6CCOc7cc(C8CC8)ccc7C6=O)c5)c(C#N)cnc4[nH]3)cc2)CC1` [Example P-6, 4-[3-(8-cyclopropyl-5-oxo-2,3-dihydro-1,4-benzoxazepin-4-yl)phenyl]-2-[4-[(4-methylpiperazin-1-yl)methyl]phenyl]-1H-pyrrolo[2,3-b]pyridine-5-carbonitrile], 0.082 µM.
As for `CN(C)C(=O)N1CCN(Cc2ccc(-c3cc4c(-c5cccc(N6CCOc7cc(C8CC8)ccc7C6=O)c5CO)ccnc4[nH]3)nc2)CC1` [Example I-11, 4-[[6-[4-[3-(8-cyclopropyl-5-oxo-2,3-dihydro-1,4-benzoxazepin-4-yl)-2-(hydroxymethyl)phenyl]-1H-pyrrolo[2,3-b]pyridin-2-yl]-3-pyridyl]methyl]-N,N-dimethyl-piperazine-1-carboxamide], the IC50 is over 1 µM.
`CN1CCN(Cc2ccc(-c3cc4c(-c5cccc(N6CCOc7cc(C8CC8)ccc7C6=O)c5CO)ccnc4[nH]3)c(F)c2)CC1` [Example B-18, 8-cyclopropyl-4-[3-[2-[2-fluoro-4-[(4-methylpiperazin-1-yl)methyl]phenyl]-1H-pyrrolo[2,3-b]pyridin-4-yl]-2-(hydroxymethyl)phenyl]-2,3-dihydro-1,4-benzoxazepin-5-one]: the 50% inhibitory concentration (IC50) turned out to be 0.009 µM.
Take `CS(=O)(=O)N1CC=C(c2cc3c(-c4ccnc(N5CCOc6cc(C7CC7)cc(F)c6C5=O)c4CO)ccnc3[nH]2)CC1` [Example P-25, 8-cyclopropyl-6-fluoro-4-[3-(hydroxymethyl)-4-[2-(1-methylsulfonyl-3,6-dihydro-2H-pyridin-4-yl)-1H-pyrrolo[2,3-b]pyridin-4-yl]-2-pyridyl]-2,3-dihydro-1,4-benzoxazepin-5-one]: the IC50 turned out to be 0.618 µM.
With `O=C1c2c(F)cc(C3CC3)cc2OCCN1c1cc(F)cc(-c2ccnc3[nH]c(-c4ccc(CN5CCN(C6COC6)CC5)cn4)cc23)c1CO` [Example I-17, 8-cyclopropyl-6-fluoro-4-[5-fluoro-2-(hydroxymethyl)-3-[2-[5-[[4-(oxetan-3-yl)piperazin-1-yl]methyl]-2-pyridyl]-1H-pyrrolo[2,3-b]pyridin-4-yl]phenyl]-2,3-dihydro-1,4-benzoxazepin-5-one], the IC50 is 0.0013 µM.
In the case of `COC1CCN(C(=O)c2ccc(-c3cc4c(-c5cccc(N6CCOc7cc(C8CC8)ccc7C6=O)c5C)ncnc4[nH]3)cc2)CC1` [Example K-10, 8-cyclopropyl-4-[3-[6-[4-(4-methoxypiperidine-1-carbonyl)phenyl]-7H-pyrrolo[2,3-d]pyrimidin-4-yl]-2-methyl-phenyl]-2,3-dihydro-1,4-benzoxazepin-5-one], the IC50 is 0.233 µM.
